Earlier results, collected in patent publication US12350251B2, “Sexual health enhancement composition” (Rev Pharmaceuticals, Inc., priority 2016, dated 2025).
Read-outs that look alike come from different tables or passages of the source.

Assays:
cAMP production = conditions: treated cells
[1] = not given; remark: listed apart in the source
[2] = not given; remark: listed apart in the source
human CC = conditions: in vitro, alone; read-out: EC50 of relaxation of human CC

SMILES: C=C[C@@]1(C)CC(=O)[C@]2(O)[C@@]3(C)[C@@H](O)CCC(C)(C)[C@@H]3[C@H](O)[C@H](OC(C)=O)[C@@]2(C)O1 [forskolin]
- water solubility: water soluble

SMILES: Cc1ccc(N(CC2=NCCN2)c2cccc(O)c2)cc1 [phentolamine]
- cAMP production (cAMP production): unaffected

SMILES: Cl.N=C(N)NCCC[C@H](N)C(=O)O [L-arginine hydrochloride (HCl), L-arginine hydrochloride]
- Cmax ([1]; 6 gm oral): 310 µM
- Half-life ([1]; IV): 1 h
- Half-life ([1]; PO): 1.5 h
- changes in hemodynamics ([2]; 6 gm doses): No significant changes
- urinary cGMP and nitrate excretion ([2]; about 6 gm to about 30 gm IV): significant increases
- blood pressure and total peripheral resistance ([2]; after 30 gm IV): significantly decreased

SMILES: N=C(N)NCCC[C@H](N)C(=O)O [L-arginine]
- peripheral vasodilation in humans ([2]; IV infusion or oral, about 6 to about 30 gm): induced peripheral vasodilation

SMILES: COc1ccc(Cc2nccc3cc(OC)c(OC)cc23)cc1OC [papaverine]
- cAMP production (cAMP production): unaffected

SMILES: CCCCC[C@H](O)/C=C/[C@H]1[C@H](O)CC(=O)[C@@H]1CCCCCCC(=O)O [prostaglandin E1]
- EC50 (human CC): ~16 nM
